Measurements: US6346535B1, “Fungicidal mixtures” (American Cyanamid Company, priority 1999, dated 2002)
Like-named read-outs stand apart in the source and are kept apart here.

Assays:
Format in all cases: in vivo
[1] = system: Uncinula necator on vines; assay: Greenhouse trial, 1 day residual, Uncinula necator on vines; details: Table XVIII, compound alone
Description: (§1) The trials are carried out under greenhouse (Examples 1 to 18) or field conditions (Example 19) in residual or curative applications. The fungicides are applied in single treatments, or in a combination comprising a benzophenone of formula I and a compound selected from (A) through (E) as defined above. The compounds are applied in form of an aqueous spray mix obtained from a concentrated formulation or the technical material.
(§2) 1. Seed is planted in 6 cm diameter plastic pots and maintained in the greenhouse.
(§3) 2. When the primary leaf is fully expanded (in the case of cereals) or several leaves are present (in the case of dicots), formulated test compounds are sprayed with a three nozzle overhead fungicide sprayer to near run-off. Alternatively, a single nozzle overhead track sprayer is used for application of the compounds to cereals at a rate of 200 liters/ha (l/ha). Plants are then allowed to air-dry.
(§4) 3. Inoculation precedes treatment in the case of curative evaluations and follows treatment in case of residual evaluations. For inoculation of powdery mildew disease, plants are set up on greenhouse benches with bottom watering mats and inoculated by dusting them with conidia from infected plants. Between inoculation and treatment for curative evaluations and between treatment and inoculation for residual evaluations, plants are maintained in the greenhouse with bottom watering. For inoculation of non-powdery mildew diseases, an aqueous spore suspension of the pathogen is applied to the plant and the plants are kept 1-2 days in a moist infection chamber before being returned to the greenhouse where they are maintained by bottom watering.
(§5) 4. Disease on the foliage as percent leaf area with disease symptoms/signs is evaluated about 7 days after inoculation. In the case of wheat, the tips and bases of the leaves are excluded from the evaluation. [formula]
(§6) 1. Technical compounds are formulated in a solvent/surfactant system consisting of 5% acetone and 0.05% Tween 20 in deionized water. Compounds are dissolved in acetone prior to addition of the water; the Tween 20 can be added through either the acetone or the water. Dilutions are made using the solvent/surfactant system. Formulated compounds are prepared using deionized water.
(§7) Assessments of the diseases took place at the indicated day after the application of the compounds. Per cent infected leaf area infected was evaluated. The efficacy of the compounds/compounds mixtures to control the diseases was calculated by using the formula given above under item 4: […]
(§8) Synergy of a fungicide mixture was determined by comparing the actual (observed) fungicidal activity of the mixture to the expected fungicidal activity of the mixture as calculated using the COLBY formula given hereinabove.
Fungicidal Efficacy of the Mixture of BP-4+AP-4 (1 Day Residual) Against Uncinula necator on Vines
The tank mixes were obtained from technical material of BP-4 and AP-4. The active ingredients, the type of formulations, the observed and expected efficacies with different rates are given in Table XVIII: […]

[2] = system: Blumeria graminis on wheat; assay: Greenhouse trial, 3 day protective, Blumeria graminis on wheat; details: compound alone
Description: (§9) The fungicides are applied in single treatments, or in a combination comprising a benzophenone of formula I and a compound selected from (A) through (E) as defined above. The compounds are applied in form of an aqueous spray mix obtained from a concentrated formulation or the technical material.
as §2, §3, §4, §5, §6, §7, §8
Fungicidal Efficacy of the Mixture of BP-5+Triforine (3 Day Protective) Against Blumeria graminis on Wheat
Fungicidal Efficacy of the Mixture of BP-1+Triadimefon (3 Day Protective) Against Blumeria graminis on Wheat

[3] = system: Blumeria graminis on wheat; assay: Greenhouse trial, 4 day curative, Blumeria graminis on wheat; details: compound alone
Description: The trials are carried out under greenhouse (Examples 1 to 18) or field conditions (Example 19) in residual or curative applications. The fungicides are applied in single treatments, or in a combination comprising a benzophenone of formula I and a compound selected from (A) through (E) as defined above. The compounds are applied in form of an aqueous spray mix obtained from a concentrated formulation or the technical material. […] Seed is planted in 6 cm diameter plastic pots and maintained in the greenhouse. […] When the primary leaf is fully expanded (in the case of cereals) or several leaves are present (in the case of dicots), formulated test compounds are sprayed with a three nozzle overhead fungicide sprayer to near run-off. Alternatively, a single nozzle overhead track sprayer is used for application of the compounds to cereals at a rate of 200 liters/ha (l/ha). Plants are then allowed to air-dry. […] Inoculation precedes treatment in the case of curative evaluations and follows treatment in case of residual evaluations. For inoculation of powdery mildew disease, plants are set up on greenhouse benches with bottom watering mats and inoculated by dusting them with conidia from infected plants. Between inoculation and treatment for curative evaluations and between treatment and inoculation for residual evaluations, plants are maintained in the greenhouse with bottom watering. For inoculation of non-powdery mildew diseases, an aqueous spore suspension of the pathogen is applied to the plant and the plants are kept 1-2 days in a moist infection chamber before being returned to the greenhouse where they are maintained by bottom watering. […] Disease on the foliage as percent leaf area with disease symptoms/signs is evaluated about 7 days after inoculation. In the case of wheat, the tips and bases of the leaves are excluded from the evaluation. [formula] […] Compounds are dissolved in acetone prior to addition of the water; the Tween 20 can be added through either the acetone or the water. Dilutions are made using the solvent/surfactant system. Formulated compounds are prepared using deionized water. Assessments of the diseases took place at the indicated day after the application of the compounds. Per cent infected leaf area infected was evaluated. […] Synergy of a fungicide mixture was determined by comparing the actual (observed) fungicidal activity of the mixture to the expected fungicidal activity of the mixture as calculated using the COLBY formula given hereinabove.

[4] = system: Erysiphe cichoracearum on cucumbers; assay: Greenhouse trial, 4 day residual, Erysiphe cichoracearum on cucumbers; details: for pest or weed control at 0.4 ppm: dose rate 0.4 ppm; for pest or weed control at 10 ppm: dose rate 10 ppm; for pest or weed control at 50 ppm: dose rate 50 ppm; for Observed Efficacy: Table VI
Summary of the method: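 Cucumber plants were sprayed to near run-off with compounds or mixtures (5% acetone/0.05% Tween 20 aqueous). Four days later they were inoculated by dusting with Erysiphe cichoracearum conidia. Percent diseased leaf area was assessed about 7 days after inoculation, and efficacy and Colby synergy were calculated from it.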

Cercospora beticola = assay: Field trial against the sugar beet disease Cercospora beticola; details: Table XIX, compound alone
Description: The trials are carried out under greenhouse (Examples 1 to 18) or field conditions (Example 19) in residual or curative applications. The fungicides are applied in single treatments, or in a combination comprising a benzophenone of formula I and a compound selected from (A) through (E) as defined above. The compounds are applied in form of an aqueous spray mix obtained from a concentrated formulation or the technical material. For the field study formulated benzophenones BP-1 through BP-4 and formulated compounds from (A) through (E) were used. The compounds are applied according to good agricultural practice in form of an aqueous spray mix obtained from concentrated formulation or the technical material at a rate of 400 l/ha. The disease control is evaluated according to the formula given for the greenhouse tests. Fungicidal Efficacy of the Mixture of BP-1+Metconazole in the Field Against the Sugar Beet Disease Cercospora beticola The tank mix was obtained from a SC formulation containing 100 g of BP-1 per liter and a SL formulation containing 60 g of metconazole per liter.

[5] = system: Puccinia recondita on wheat; assay: Greenhouse trial, 4 day residual, Puccinia recondita on wheat; details: Table VII, compound alone
Summary of the method: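 Wheat plants sprayed at primary-leaf stage with compounds, alone or in mixtures, in 5% acetone/0.05% Tween 20 water, then inoculated 4 days later with Puccinia recondita spore suspension and held 1-2 days in a moist chamber. Percent diseased leaf area scored about 7 days post-inoculation, excluding leaf tips and bases; efficacy calculated, synergy by Colby.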

[6] = system: Leptosphaeria nodorum on wheat; assay: Greenhouse trial, 4 day residual, Leptosphaeria nodorum on wheat; details: Table VIII, compound alone
Description: as §9, §2, §3, §4, §5, §6, §7, §8
Fungicidal Efficacy of the Mixture of BP-4+Other Fungicides (4 Day Residual) Against Leptosphaeria nodorum on Wheat

[7] = system: Blumeria graminis f. sp. tritici on wheat; assay: Greenhouse trial, 2 day curative, Blumeria graminis f. sp. tritici on wheat; details: Table XVII, compound alone
Description: as §1, §2, §3, §4, §5, §6, §7, §8
Fungicidal Efficacy of the Mixture of Different Benzophenones+Metconazole (2 Day Curative) Against Blumeria graminis f. sp. tritici on Wheat
The tank mixes were obtained from technical material of the benzophenones BP-2 and BP-4 and metconazole.

[8] = system: Pyrenophora teres on barley; assay: Greenhouse trial, 4 day residual, Pyrenophora teres on barley; details: Pyrenophora teres, 96 h, Table XIII (Example 13), 4 day residual, read-out: Observed Efficacy
Description: as §9, §2, §3, §4, §5, §6, §7, §8
Fungicidal Efficacy of the Mixture of BP-4+Other Fungicides (4 Day Residual) Against Pyrenophora teres on Barley

[9] = Golovinomyces cichoracearum, 96 h, Table XIV (Example 14), 4 day residual, read-out: Observed Efficacy
[10] = Golovinomyces cichoracearum, 96 h, Table XI, compound alone, read-out: Observed Efficacy

CC(Nc1c(-c2c(F)cc(F)cc2F)c(Cl)nc2ncnn12)C(F)(F)F (stereo not shown) [AP-4, 5-chloro-6-(2,4,6-trifluorophenyl)-7-[2-(1,1,1-trifluoro)propylamino]-[1,2,4]triazolo[1,5-a]pyrimidine]
Observed Efficacy ([1]; dose rate 0.03 ppm): 13% | Observed Efficacy ([1]; dose rate 0.06 ppm): 7% | Observed Efficacy ([1]; dose rate 0.12 ppm): 32% | Observed Efficacy ([1]; dose rate 0.25 ppm): 50% | Observed Efficacy ([1]; dose rate 0.5 ppm): 76% | Observed Efficacy ([1]; dose rate 1 ppm): 76%

COc1cc(C)c(C(=O)c2c(Cl)cccc2Cl)c(OC)c1OC [BP-5, 2,6-dichloro-2′-methyl-4′,5′,6′-trimethoxybenzophenone]
Observed Efficacy ([2]; Table IV, dose rate 5 ppm): 12% | Observed Efficacy ([2]; Table IV, dose rate 25 ppm): 31%

CC(C)(C)C(=O)C(Oc1ccc(Cl)cc1)n1cncn1 (stereo not shown) [triadimefon]
Observed Efficacy ([3]; Table III, dose rate 25 ppm): 12% | Observed Efficacy ([3]; Table III, dose rate 125 ppm): 30% | Observed Efficacy ([2]; Table V, dose rate 25 ppm): 24% | pest or weed control at 0.4 ppm [4, 9]: 0% | pest or weed control at 2 ppm ([4]; Golovinomyces cichoracearum, 96 h, Table XIV (Example 14), 4 day residual, dose rate 2 ppm, read-out: Observed Efficacy): 6% | pest or weed control at 10 ppm [4, 9]: 23% | pest or weed control at 50 ppm [4, 9]: 47%

CCCCOc1c(OC)c(OC)cc(C)c1C(=O)c1c(Cl)cccc1Cl [BP-1, 6′-butoxy-2,6-dichloro-4′,5′-dimethoxy-2′-methylbenzophenone]
Observed Efficacy ([3]; Table I, dose rate 25 ppm): 1% | Observed Efficacy ([3]; Table I, dose rate 125 ppm): 42% | Observed Efficacy ([3]; Table II, dose rate 25 ppm): 1% | Observed Efficacy ([3]; Table II, dose rate 125 ppm): 42% | Observed Efficacy ([3]; Table III, dose rate 25 ppm): 1% | Observed Efficacy ([3]; Table III, dose rate 125 ppm): 42% | Observed Efficacy ([2]; Table V, dose rate 1 ppm): 44% | Observed Efficacy ([2]; Table V, dose rate 5 ppm): 78% | Observed Efficacy (Cercospora beticola; dose rate 250 g/ha): 42.5%

triforine
Observed Efficacy ([2]; Table IV, dose rate 125 ppm): 12% | Observed Efficacy ([5]; dose rate 4 ppm): 0% | Observed Efficacy ([5]; dose rate 16 ppm): 7% | Observed Efficacy ([5]; dose rate 64 ppm): 90% | Observed Efficacy ([5]; dose rate 256 ppm): 100% | Observed Efficacy ([6]; dose rate 1 ppm): 0% | Observed Efficacy ([6]; dose rate 4 ppm): 4% | Observed Efficacy ([6]; dose rate 16 ppm): 31% | Observed Efficacy ([6]; dose rate 64 ppm): 51% | Observed Efficacy ([6]; dose rate 256 ppm): 85% | Observed Efficacy ([4]; compound alone, dose rate 4 ppm): 1% | Observed Efficacy ([4]; compound alone, dose rate 16 ppm): 44% | Observed Efficacy ([4]; compound alone, dose rate 64 ppm): 79% | Observed Efficacy ([4]; compound alone, dose rate 256 ppm): 96%

CC1(C)CCC(Cc2ccc(Cl)cc2)C1(O)Cn1cncn1 (stereo not shown) [Metconazole]
Observed Efficacy ([7]; dose rate 0.33 ppm): 0% | Observed Efficacy ([7]; dose rate 1 ppm): 2% | Observed Efficacy ([7]; dose rate 3 ppm): 7% | Observed Efficacy ([7]; dose rate 9 ppm): 14% | Observed Efficacy ([7]; dose rate 27 ppm): 40% | pest or weed control at 0.4 ppm ([8]; dose rate 0.4 ppm): 0% | pest or weed control at 10 ppm ([8]; dose rate 10 ppm): 47% | Observed Efficacy (Cercospora beticola; dose rate 90 g/ha): 58% | pest or weed control at 0.4 ppm [4, 10]: 2% | pest or weed control at 10 ppm [4, 10]: 75% | pest or weed control at 50 ppm [4, 10]: 99%
